“And” between values parts separate entries of the source, which are not always exact repeats. Equal values may be shown once. Strand notation (5' to 3'): a small letter for the sugar, then the base; units joined by * are phosphorothioate-linked, units joined directly phosphodiester-linked; [ ] holds rarer units or linkages, { } end groups; capitals alone tell only the bases. [ms] = mesyl phosphoramidate linkage; e = 2'-O-(2-methoxyethyl) (MOE); k = constrained ethyl (cEt); [5mC] = 5-methylcytosine; d = 2'-deoxy (DNA)
What was measured:
human APOE RNA [1] = experiment: Activity in APOE C57BL/6NTac-Apoeem7250 knock-in mice, single ICV bolus, 20 weeks (Example 13); assay type: in vivo; settings: single ICV bolus 300 μg, 20 weeks post treatment, normalized to mouse Ppia
Experimental: Modified oligonucleotides described above were tested in the APOE C57BL/6NTac-Apoeem7250 knock-in mouse model described above.
APOE C57BL/6NTac-Apoeem7250 knock-in mice were divided into groups of 4 mice each. Each mouse received a single ICV bolus of 300 μg of modified oligonucleotide. A group of 2-4 mice received a single ICV bolus with PBS as a negative control.
Twenty weeks post treatment, mice were sacrificed and RNA was extracted from cortical brain tissue and spinal cord for quantitative real-time RT-PCR analysis of RNA expression of APOE using human primer probe set RTS3073 (described herein above). APOE RNA levels were normalized to mouse Ppia. Mouse Ppia was amplified using primer probe set m_cyclo24 (described herein above). Results are presented as percent human APOE RNA relative to the amount of human APOE RNA in PBS treated animals, (% control). Each experiment is identified in separate tables below.

human APOE RNA [2] = experiment: Activity in APOE C57BL/6NTac-Apoeem7250 knock-in mice, single ICV bolus, 8 weeks (Example 11); assay type: in vivo; settings: single ICV bolus 300 μg, 8 weeks post treatment, normalized to mouse Ppia
Method in brief: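 Human APOE knock-in C57BL/6NTac mice given one ICV bolus of 300 μg oligonucleotide; PBS-dosed group as control. At 8 weeks, cortex and spinal cord RNA measured by qRT-PCR (human probe RTS3073), normalized to mouse Ppia, expressed as % of PBS control.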

human APOE RNA [3] = experiment: Activity in APOE C57BL/6NTac-Apoeem7250 knock-in mice, single ICV bolus, 16 weeks (Example 12); assay type: in vivo; settings: cortex; single ICV bolus 300 μg; 16 weeks post treatment; normalized to mouse Ppia
Method in brief: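 Knock-in mice (3-4 per group) received one ICV bolus of 300 μg oligonucleotide, PBS as control. After 16 weeks, human APOE RNA in cortex and spinal cord measured by RT-qPCR, normalized to mouse Ppia, and reported as % of PBS control.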

human APOE RNA [4] = experiment: Activity in APOE C57BL/6NTac-Apoeem7250 knock-in mice, single ICV bolus, 4 weeks (Example 10); assay type: in vivo; settings: single ICV bolus 300 μg, 4 weeks post treatment, normalized to mouse Ppia
Method in brief: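 Knock-in mice (2–4 per group) received one 300 μg ICV bolus of oligonucleotide or PBS. After four weeks, human APOE RNA in cortex and spinal cord measured by RT-qPCR (primer probe set RTS3073), normalized to mouse Ppia, expressed as % of PBS controls.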

human APOE RNA [5] = experiment: Dose-dependent inhibition of human APOE RNA in HepG2 cells, electroporation, 50,000 cells per well, RT-PCR normalized to GAPDH (Example 4, Tables 8-10); assay type: cell-based; settings: HepG2, electroporation, 16-hour treatment
Method in brief: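 HepG2 cells, 50,000 per well, electroporated with modified oligonucleotide at various concentrations. APOE RNA quantified by RT-PCR with human primer probe set RTS3073, normalized to GAPDH. Values are percent APOE RNA relative to untreated control cells.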

Substance	APOE RNA (% control) Cortex (human APOE RNA [1]) [% control]	APOE RNA (% control) Spinal Cord (human APOE RNA [1]) [% control]	APOE RNA (% control) Cortex (human APOE RNA [2]; cortex) [% control]	APOE RNA (% control) Spinal Cord (human APOE RNA [2]; spinal cord) [% control]	APOE RNA (% control) Cortex (human APOE RNA [3])	APOE RNA (% control) Cortex (human APOE RNA [4]) [% control]	APOE RNA (% control) Spinal Cord (human APOE RNA [4]) [% control]	APOE RNA (% UTC) (human APOE RNA [5]; 5 nM)	APOE RNA (% UTC) (human APOE RNA [5]; 13 nM)	APOE RNA (% UTC) (human APOE RNA [5]; 33 nM)	APOE RNA (% UTC) (human APOE RNA [5]; 82 nM)	APOE RNA (% UTC) (human APOE RNA [5]; 205 nM)	APOE RNA (% UTC) (human APOE RNA [5]; 512 nM)	APOE RNA (% UTC) (human APOE RNA [5]; 1,280 nM)	APOE RNA (% UTC) (human APOE RNA [5]; 3,200 nM)	APOE RNA (% UTC) (human APOE RNA [5]; 8,000 nM)	APOE RNA (% UTC) (human APOE RNA [5]; 20,000 nM)	IC50 (human APOE RNA [5]) [µM]
1693144: 6-10-4 MOE gapmer ACTTGGTGAATCTTTATTAA, linkages soosssszzzssssszsss (eA*e[5mC]eTeT*eG*eG*dT*dG[ms]dA[ms]dA[ms]dT*d[5mC]*dT*dT*dT*dA[ms]eT*eT*eA*eA) [compound 1693144]	65	71	67	43	113 % control and 61 % control													
1779961 (e[5mC]*eTeT*kG[ms]kG*eT*dG[ms]dA[ms]dA[ms]dT*d[5mC]*dT*dT*dT*dA[ms]dT*eT*eA*eA*eA; antisense) [Compound 1779961]	59	26				39	53											
1785588 (k[5mC]*kT*kT*dG[ms]dG[ms]dT[ms]dG*dA*dA[ms]dT[ms]d[5mC]*dT*dT*dT*dA*dT*kT*kA*dA[ms]kA; antisense) [Compound 1785588]	40	18				30	29											
1778108 (eA*e[5mC]eTeTeG*kG*dT*dG[ms]dA[ms]dA*dT*d[5mC]*dT*dT*dT*dA[ms]eT*eT*eA*eA; antisense) [Compound 1778108]	70	21				60	41											
1785589 (k[5mC]*kT*kT*dG[ms]dG[ms]dT[ms]dG*dA*dA*dT[ms]d[5mC][ms]dT*dT*dT*dA*dT*kT*kA*dA[ms]kA; antisense) [Compound 1785589]	49	30				32	40											
1757573 (eA*e[5mC]eTeT*eG*eG*dT*dG[ms]dA[ms]dA[ms]dT*d[5mC]*dT*dT*dT*dA[ms]kT*eT*eA*eA; antisense) [Compound 1757573]	61	42				53	38											
1757567 (eA*e[5mC]eTeTeG*dG*dT*dG*dA*dA*dT*d[5mC]*dT*dT*dT*kAeTeT*eA*eA; antisense) [Compound 1757567]	80	65						103	108	97	91	95	64	59	37	19	23	1.82
1757544: mixed MOE/cEt gapmer TTGGTGAATCTTTATTAA, sugar ekeeeddddddddeeeee, linkages soossssssssssooss (eT*kTeGeG*eT*dG*dA*dA*dT*d[5mC]*dT*dT*dT*eAeTeT*eA*eA) [compound 1757544]	101	96						104	86	100	111	90	75	59	42	26	12	2.18

Source: US20250353873A1, “COMPOUNDS AND METHODS FOR MODULATING APOE EXPRESSION” (Ionis Pharmaceuticals, Inc., priority 2024, published 2025)
